Patent US4181802A, “1-(Heterocyclylalkyl)-1,3-dihydro-2-H-benzimidazole-2-ones” (Janssen Pharmaceutica N.V., priority 1978, dated 1980)
Like-named read-outs stand apart in the source and are kept apart here.

Key:
Type in all cases: cell-based
[1] = biological target: T1, β-adrenergic receptor (β1), guinea-pig right atrium (Cavia porcellus, UniProt H0W3H1); assay: Guinea-pig right atrium (β1): inhibition of isoprenaline-induced increase in heart rate; conditions: isolated guinea-pig right atrium, drug incubation 30 min, 37.5° C.
T1 construct: Spontaneously beating right atria are dissected from guinea-pigs; from tissue; host or cells: guinea-pig right atrium (strip with sinoatrial node)
Description: 1. GUINEA-PIG RIGHT ATRIUM (β1)
Spontaneously beating right atria are dissected from guinea-pigs (400±50 g). A triangular strip of atrium, including the sinoatrial node is excised together with the anterior vena cava.
The vena is fixed to a glass muscle holder and the opposite atrial muscle is connected to a Grass isometric transducer. Atria are suspended at optimal preload in a 100 ml Krebs-Henseleit solution, containing 2 g/l glucose, at 37.5° C. and aerated with 95% O2 and 5% CO2.
Heart rate and contractile force are recorded by means of a Grass FTO3C isometric transducer. Output signals amplified by an isometric transducer amplifier (J.S.I.) via a cardiotachometer (J.S.I.) are recorded on a Honeywell XYY' recorder. […] This produces a dose related increase in heart rate (a). After washing out isoprenaline a stabilization period of 15 min. is allowed. A drug is then added to the bath fluid for 30 min. During this incubation period possible direct chronotropic and inotropic effects of the drug are determined. Following this, a second dose-response curve for isoprenaline is produced by infusion during 10 minutes (b). The slope of the increase in rate is graphically estimated for each period of isoprenaline addition and the ratio b/a is calculated. Based on solvent experiments a ratio of less than 0.70 is considered as the criterion of inhibitory activity. ED50 -values are estimated graphically.

[2] = test system: β-adrenergic receptor (β2), guinea-pig tracheal ring; assay: Guinea-pig tracheal ring (β2): inhibition of isoprenaline-induced relaxation; conditions: ratio of ED50 tracheal ring / ED50 right atrium; for β2/β1 (ratio of the ED50 values, tracheal ring to right atrium; index of cardioselectivity): Table I
Source text: (§1) 2. GUINEA-PIG TRACHEAL RING (β2)
(§2) The trachea is dissected from guinea-pigs (400±50 g). Four rings, approximately 8 mm in width, are then cut from each trachea. Cartilaginous parts of the tracheal ring are mounted horizontally between two metal rods, one of which is attached to a glass organholder, the other rod being connected to a Grass isometric transducer. Using such a technique the tracheal smooth muscle is suspended optimally i.e. midway between the cartilaginous parts. the prepared rings are suspended in a 100 ml organ chamber filled with Tyrode solution, maintained at 35° C. and aerated with 95% O2 and 5% CO2. The preparation is maintained at tension of 1.5 g throughout the experiment. Tension changes recorded are thus an expression of contraction or relaxation. After a stabilization period of 30 min contraction is induced by adding methacholine (1 μg/ml) to the bath for a 10 min period. Addition of isoprenaline (0.08 μg/ml) for 4 min. in the presence of methacholine induces a relaxation of the tracheal ring. This procedure is repeated twice before adding the drug (t-33'; t-19') and once 30 min after addition of the drug. During the incubation period any direct effects of the drug are measured. A 50% inhibition of the agonist-induced response is used as the criterion of effectiveness and ED50 values (with fiducial limits) are determined by probit analysis.
(§3) The ratio of the ED50 -values obtained in respectively the tracheal ring test (β2) and in the right atrium test (β1) may be considered as an index of the cardioselectivity of the test drug.

[3] = biological target: T2, β-adrenergic receptor (β2), guinea-pig tracheal ring (Cavia porcellus, UniProt Q8K4Z4); assay: as above; conditions: guinea-pig tracheal ring, methacholine 1 μg/ml, isoprenaline 0.08 μg/ml, 35° C., read-out: β2 = ED50 tracheal ring (converted)
T2 construct: The trachea is dissected from guinea-pigs; from tissue; host or cells: guinea-pig tracheal smooth muscle (rings)
Source text: as §1, §2, §3

[4] = Table I, ED50 estimated graphically
[5] = Table I, 30 min after drug, probit analysis

T2 sequence (Q8K4Z4 whole entry): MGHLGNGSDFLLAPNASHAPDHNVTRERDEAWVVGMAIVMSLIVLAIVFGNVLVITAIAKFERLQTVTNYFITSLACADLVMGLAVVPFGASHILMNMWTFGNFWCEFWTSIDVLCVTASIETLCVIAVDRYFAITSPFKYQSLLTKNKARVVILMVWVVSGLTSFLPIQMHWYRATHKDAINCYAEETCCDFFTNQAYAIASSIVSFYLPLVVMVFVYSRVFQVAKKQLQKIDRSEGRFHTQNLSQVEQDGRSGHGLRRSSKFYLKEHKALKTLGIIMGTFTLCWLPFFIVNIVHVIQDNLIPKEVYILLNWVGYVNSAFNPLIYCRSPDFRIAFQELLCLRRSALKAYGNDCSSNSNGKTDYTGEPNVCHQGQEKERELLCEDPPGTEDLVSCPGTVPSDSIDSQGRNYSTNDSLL
T1 sequence (H0W3H1 1-470): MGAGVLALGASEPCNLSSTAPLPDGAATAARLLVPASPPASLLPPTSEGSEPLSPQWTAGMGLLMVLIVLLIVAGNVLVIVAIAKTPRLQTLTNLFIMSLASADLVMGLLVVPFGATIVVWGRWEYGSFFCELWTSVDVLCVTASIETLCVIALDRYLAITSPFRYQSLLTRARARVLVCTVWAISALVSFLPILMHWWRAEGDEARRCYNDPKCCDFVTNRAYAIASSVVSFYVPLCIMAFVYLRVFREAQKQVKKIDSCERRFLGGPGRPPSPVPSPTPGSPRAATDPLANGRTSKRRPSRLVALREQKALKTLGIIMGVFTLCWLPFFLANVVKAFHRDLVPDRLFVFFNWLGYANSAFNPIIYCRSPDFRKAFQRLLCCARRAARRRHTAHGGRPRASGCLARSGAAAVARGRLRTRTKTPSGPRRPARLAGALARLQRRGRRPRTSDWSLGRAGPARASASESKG

SMILES	IC50 [3, 5]	IC50 ([3]; Table II)	IC50 [1, 4]	β2/β1 (ratio of the ED50 values, tracheal ring to right atrium; index of cardioselectivity) [2]	IC50 ([1]; Table II, read-out: β1 = ED50 right atrium (converted))	β2/β1 (ratio of the ED50 values; index of cardioselectivity) ([2]; Table II)
CCOc1ccccc1OCC(O)CN1CCCC(Cn2c(=O)[nH]c3ccccc32)C1 (stereo not drawn) [2-(C2 H5 O)C6 H4, H]	23.5 nM	–	5.88 nM	4	–	–
O=c1[nH]c2ccccc2n1CC1CCCN(CC(O)COc2ccc(Cl)cc2)C1 (stereo not drawn) [4-ClC6 H4, H]	769 nM	–	48.1 nM	16	–	–
O=c1[nH]c2ccc(Cl)cc2n1CC1CCCN(CC(O)COc2cccc3ccccc23)C1 (stereo not drawn) [1-naphthalenyl, 6-Cl]	343 nM	–	10.7 nM	32	–	–
CC(C)Oc1ccccc1OCC(O)CN1CCCC(Cn2c(=O)[nH]c3ccccc32)C1 (stereo not drawn) [2-(iC3 H7 O)C6 H4, H]	91 nM	–	11.4 nM	8	–	–
O=c1[nH]c2ccccc2n1CC1CCCN(CC(O)C2COc3ccccc3O2)C1 (stereo not drawn) [1-{1-[2-(2,3-dihydro-1,4-benzodioxin-2-yl)-2-hydroxyethyl]-3-piperidinylmethyl}-1,3-dihydro-2H-benzimidazol-2-one]	–	48.8 nM	–	–	12.2 nM	4
COc1ccccc1OCC(O)CN1CCCC(Cn2c(=O)[nH]c3ccc(Cl)cc32)C1 (stereo not drawn) [2-(CH3 O)C6 H4,6-Cl, 6-chloro-1,3-dihydro-1-{1-[2-hydroxy-3-(2-methoxyphenoxy)propyl]-3-piperidinylmethyl}-2H-benzimidazol-2-one]	89.7 nM	–	1.41 nM	63	–	–
O=c1[nH]c2ccccc2n1CC1CCCN(CC(O)COc2ccc(Br)cc2)C1 (stereo not drawn) [4-BrC6 H4, H]	2720 nM	–	10.9 nM	250	–	–
O=c1[nH]c2ccccc2n1CC1CCCN(CC(O)COc2ccc(F)cc2)C1 (stereo not drawn) [4-FC6 H4, H]	25 nM	–	3.13 nM	8	–	–
N#Cc1ccccc1OCC(O)CN1CCCC(Cn2c(=O)[nH]c3ccccc32)C1 (stereo not drawn) [2-CNC6 H4, H]	12.3 nM	–	6.15 nM	2	–	–
COc1ccccc1OCC(O)CN1CCCC(Cn2c(=O)[nH]c3ccccc32)C1 (stereo not drawn) [2-(CH3 O)C6 H4, H, 1,3-dihydro-1-{1-[2-hydroxy-3-(2-methoxyphenoxy)propyl]-3-piperidinylmethyl}-2H-benzimidazol-2-one]	12.2 nM	–	2.43 nM	5	–	–
COc1ccc(OCC(O)CN2CCCC(Cn3c(=O)[nH]c4ccccc43)C2)cc1 (stereo not drawn) [4-(CH3 O)C6 H4, H]	48.6 nM	–	24.3 nM	2	–	–
C=CCOc1ccccc1OCC(O)CN1CCCC(Cn2c(=O)[nH]c3ccccc32)C1 (stereo not drawn) [2-(CH2CHCH2 O)C6 H4, H]	45.7 nM	–	2.86 nM	16	–	–
CC(=O)c1ccc(OCC(O)CN2CCCC(Cn3c(=O)[nH]c4ccccc43)C2)cc1 (stereo not drawn) [4-(CH3 CO)C6 H4, H]	47.2 nM	–	5.9 nM	8	–	–
O=c1[nH]c2ccccc2n1CC1CCCN(CC(O)COc2cccc3ccccc23)C1 (stereo not drawn) [1-naphthalenyl, H]	2900 nM	–	23.2 nM	125	–	–
CCCCNC(=O)Nc1ccc(OCC(O)CN2CCCC(Cn3c(=O)[nH]c4ccccc43)C2)cc1 (stereo not drawn) [4-(nC4 H9NHCONH)C6 H4, H]	161 nM	–	20.2 nM	8	–	–

More lines, main results first:

IC50 [3, 5]	IC50 ([3]; Table II)	SMILES	IC50 [1, 4]	β2/β1 (ratio of the ED50 values, tracheal ring to right atrium; index of cardioselectivity) [2]	IC50 ([1]; Table II, read-out: β1 = ED50 right atrium (converted))	β2/β1 (ratio of the ED50 values; index of cardioselectivity) ([2]; Table II)
192 nM	–	O=c1[nH]c2cc(Cl)ccc2n1CC1CCCN(CC(O)COc2ccccc2)C1 (stereo not drawn) [C6 H5,5-Cl]	12 nM	16	–	–
85.4 nM	–	C=CCc1ccccc1OCC(O)CN1CCCC(Cn2c(=O)[nH]c3ccccc32)C1 (stereo not drawn) [2-(CH2CHCH2)C6 H4, H]	5.93 nM	14	–	–
48.8 nM	–	Cc1cccc(OCC(O)CN2CCCC(Cn3c(=O)[nH]c4ccccc43)C2)c1C (stereo not drawn) [2,3-(CH3)2C6 H3, H]	6.1 nM	8	–	–
46.8 nM	–	CSc1ccc(OCC(O)CN2CCCC(Cn3c(=O)[nH]c4ccccc43)C2)cc1 (stereo not drawn) [4-(CH3 S)C6 H4, H]	1.47 nM	32	–	–
2820 nM	–	Cc1cc(OCC(O)CN2CCCC(Cn3c(=O)[nH]c4ccccc43)C2)cc(C)c1Cl (stereo not drawn) [3,5-(CH3)2-4-ClC6 H2, H]	5.63 nM	500	–	–
1430 nM	–	CCCc1ccc(OCC(O)CN2CCCC(Cn3c(=O)[nH]c4cc(F)ccc43)C2)cc1 (stereo not drawn) [4-(nC3 H7)C6 H4,5-F]	22.6 nM	63	–	–
23.3 nM	–	O=c1[nH]c2ccccc2n1CC1CCCN(CC(O)COc2ccccc2)C1 (stereo not drawn) [C6 H5, H]	1.65 nM	15	–	–
391 nM	–	CCOc1ccccc1OCC(O)CN1CCCC(Cn2c(=O)[nH]c3ccc(Cl)cc32)C1 (stereo not drawn) [2-(C2 H5 O)C6 H4,6-Cl]	21.7 nM	18	–	–
2.95 nM	–	CC(=O)c1ccccc1OCC(O)CN1CCCC(Cn2c(=O)[nH]c3ccccc32)C1 (stereo not drawn) [2-(CH3 CO)C6 H4, H]	2.95 nM	1	–	–
50.6 nM	–	Cc1cccc(OCC(O)CN2CCCC(Cn3c(=O)[nH]c4ccccc43)C2)c1 (stereo not drawn) [3-(CH3)C6 H4, H]	6.32 nM	8	–	–
181 nM	–	N#Cc1ccccc1OCC(O)CN1CCCC(Cn2c(=O)[nH]c3ccc(Cl)cc32)C1 (stereo not drawn) [2-CNC6 H4,6-Cl]	11.3 nM	16	–	–
714 nM	–	O=c1[nH]c2cc(Cl)ccc2n1CC1CCCN(CC(O)COc2ccc(F)cc2)C1 (stereo not drawn) [4-FC6 H4,5-Cl]	11.5 nM	62	–	–
119 nM	–	O=c1[nH]c2ccccc2n1CC1CCCN(CC(O)COc2ccccc2Br)C1 (stereo not drawn) [2-BrC6 H4, H]	5.43 nM	22	–	–
184 nM	–	O=c1[nH]c2ccc(Cl)cc2n1CC1CCCN(CC(O)COc2ccc(F)cc2)C1 (stereo not drawn) [4-FC6 H4,6-Cl]	11.5 nM	16	–	–
22.8 nM	–	CCCOc1ccccc1OCC(O)CN1CCCC(Cn2c(=O)[nH]c3ccccc32)C1 (stereo not drawn) [2-(nC3 H7 O)C6 H4, H]	5.69 nM	4	–	–
48.8 nM	–	CCc1ccccc1OCC(O)CN1CCCC(Cn2c(=O)[nH]c3ccccc32)C1 (stereo not drawn) [2-(C2 H5)C6 H4, H]	6.1 nM	8	–	–
410 nM	–	CC(=O)Nc1ccc(OCC(O)CN2CCCC(Cn3c(=O)[nH]c4ccccc43)C2)cc1 (stereo not drawn) [4-(CH3 CONH)C6 H4, H]	5.7 nM	72	–	–
12.5 nM	–	O=c1[nH]c2cc(F)ccc2n1CC1CCCN(CC(O)COc2ccccc2)C1 (stereo not drawn) [C6 H5,5-F]	3.13 nM	4	–	–
